Measurements taken from ChEMBL document CHEMBL4138296, “Nonacidic Chemotype Possessing N-Acylated Piperidine Moiety as Potent Farnesoid X Receptor (FXR) Antagonists” (ACS Med Chem Lett, 2018).
Calls of active or inactive are those of the source. No cut-off for these calls is given here.

Assays:
[1] = target: T1, Peroxisome proliferator-activated receptor delta (Homo sapiens) (UniProt Q03181); test: Agonist activity at PPARdelta (unknown origin) at 1 uM by luciferase reporter gene assay
T1 sequence (whole entry): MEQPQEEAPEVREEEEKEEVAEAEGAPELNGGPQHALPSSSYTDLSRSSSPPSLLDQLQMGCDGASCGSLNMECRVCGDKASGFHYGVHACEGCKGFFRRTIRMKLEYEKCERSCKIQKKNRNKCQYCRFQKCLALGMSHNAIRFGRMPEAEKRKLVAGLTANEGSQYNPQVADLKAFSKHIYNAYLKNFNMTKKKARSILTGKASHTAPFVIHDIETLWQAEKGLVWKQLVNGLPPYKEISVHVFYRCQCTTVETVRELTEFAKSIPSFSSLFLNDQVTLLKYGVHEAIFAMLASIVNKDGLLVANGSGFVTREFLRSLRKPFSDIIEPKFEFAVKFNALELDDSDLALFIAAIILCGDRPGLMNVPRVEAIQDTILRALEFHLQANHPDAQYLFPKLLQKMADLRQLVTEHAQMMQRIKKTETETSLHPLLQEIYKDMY

[2] = target: T2, Retinoic acid receptor alpha (Homo sapiens) (UniProt P10276); test: Antagonist activity at RARalpha (unknown origin) assessed as inhibition of ATRA-induced response at 1 uM by luciferase reporter gene assay
T2 sequence (whole entry): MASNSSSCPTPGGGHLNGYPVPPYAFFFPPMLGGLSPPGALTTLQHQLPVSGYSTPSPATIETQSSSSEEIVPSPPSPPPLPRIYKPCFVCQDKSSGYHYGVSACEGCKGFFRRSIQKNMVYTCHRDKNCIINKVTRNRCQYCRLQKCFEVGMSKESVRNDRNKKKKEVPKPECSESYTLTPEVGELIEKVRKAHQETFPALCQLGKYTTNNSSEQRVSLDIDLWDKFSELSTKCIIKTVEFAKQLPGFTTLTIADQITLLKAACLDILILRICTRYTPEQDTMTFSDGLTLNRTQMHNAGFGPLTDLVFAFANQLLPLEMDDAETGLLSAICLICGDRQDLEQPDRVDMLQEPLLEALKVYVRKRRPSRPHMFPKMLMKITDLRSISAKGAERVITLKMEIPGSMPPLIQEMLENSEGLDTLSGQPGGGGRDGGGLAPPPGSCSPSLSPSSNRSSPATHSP

[3] = target: T1, Peroxisome proliferator-activated receptor delta (Homo sapiens); test: Antagonist activity at PPARdelta (unknown origin) assessed as inhibition of GW501516-induced response at 1 uM by luciferase reporter gene assay
[4] = target: T3, Peroxisome proliferator-activated receptor gamma (Homo sapiens) (UniProt P37231); test: Agonist activity at PPARgamma (unknown origin) at 1 uM by luciferase reporter gene assay
T3 sequence (whole entry): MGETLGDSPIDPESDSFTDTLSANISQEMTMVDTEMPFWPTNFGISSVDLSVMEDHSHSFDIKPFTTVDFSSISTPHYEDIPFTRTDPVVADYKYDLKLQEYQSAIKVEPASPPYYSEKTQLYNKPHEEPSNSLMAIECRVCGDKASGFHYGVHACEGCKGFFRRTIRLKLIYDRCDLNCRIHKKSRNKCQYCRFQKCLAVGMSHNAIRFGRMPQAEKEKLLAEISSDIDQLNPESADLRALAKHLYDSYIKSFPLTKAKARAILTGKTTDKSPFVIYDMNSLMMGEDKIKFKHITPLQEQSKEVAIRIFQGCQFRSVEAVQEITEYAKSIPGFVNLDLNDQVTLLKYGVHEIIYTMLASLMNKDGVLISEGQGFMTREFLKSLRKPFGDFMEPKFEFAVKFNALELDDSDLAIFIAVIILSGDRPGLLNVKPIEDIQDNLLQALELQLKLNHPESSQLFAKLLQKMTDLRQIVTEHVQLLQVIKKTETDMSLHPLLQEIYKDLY

3T3-L1 [5] = test: Cytotoxicity against mouse 3T3L1 cells assessed as reduction in cell viability measured up to 10 uM after 6 days by CCK-8 assay; format: cell-based; conditions: 3t3-l1, 144 h
[6] = target: T4, Peroxisome proliferator-activated receptor alpha (Homo sapiens) (UniProt Q07869); test: Agonist activity at PPARalpha (unknown origin) at 1 uM by luciferase reporter gene assay
T4 sequence (whole entry): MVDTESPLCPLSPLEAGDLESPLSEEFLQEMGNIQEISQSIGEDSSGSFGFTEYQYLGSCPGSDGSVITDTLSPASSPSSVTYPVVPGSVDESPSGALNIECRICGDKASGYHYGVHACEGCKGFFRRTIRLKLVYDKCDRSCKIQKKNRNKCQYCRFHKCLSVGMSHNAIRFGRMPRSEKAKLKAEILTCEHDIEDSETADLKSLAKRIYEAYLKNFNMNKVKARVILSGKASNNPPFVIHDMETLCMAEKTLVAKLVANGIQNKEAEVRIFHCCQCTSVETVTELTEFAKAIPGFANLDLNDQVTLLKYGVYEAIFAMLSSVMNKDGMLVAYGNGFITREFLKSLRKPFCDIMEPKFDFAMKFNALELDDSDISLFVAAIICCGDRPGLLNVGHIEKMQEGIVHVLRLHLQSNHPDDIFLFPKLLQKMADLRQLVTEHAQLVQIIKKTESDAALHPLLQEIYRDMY

[7] = target: T5, Vitamin D3 receptor (Homo sapiens) (UniProt P11473); test: Antagonist activity at human VDR expressed in HEK293T cells assessed as inhibition of 1,25(OH)2VD3-induced response at 1 uM after 24 hrs by luciferase reporter gene assay; format: cell-based
T5 sequence (whole entry): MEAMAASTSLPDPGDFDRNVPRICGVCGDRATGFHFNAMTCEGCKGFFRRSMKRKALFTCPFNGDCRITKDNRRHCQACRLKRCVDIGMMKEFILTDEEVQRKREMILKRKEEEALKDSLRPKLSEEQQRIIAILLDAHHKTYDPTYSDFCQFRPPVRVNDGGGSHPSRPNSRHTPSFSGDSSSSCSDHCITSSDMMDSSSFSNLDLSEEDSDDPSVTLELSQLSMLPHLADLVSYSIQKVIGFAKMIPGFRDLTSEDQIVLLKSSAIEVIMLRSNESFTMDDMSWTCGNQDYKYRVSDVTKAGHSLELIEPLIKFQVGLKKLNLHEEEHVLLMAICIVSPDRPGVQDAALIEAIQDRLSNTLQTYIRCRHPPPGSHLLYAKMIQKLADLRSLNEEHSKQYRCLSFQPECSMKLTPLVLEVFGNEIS

3T3-L1 [8] = test: Antiadipogenic activity in mouse 3T3L1 cells assessed as inhibition of CDCA-induced triglyceride accumulation after 6 days; format: functional, cell-based

Cc1ccc2nc([C@H](CC3CCN(C(=O)C(C)C)CC3)N3C(=O)CN(c4ccc(Oc5ccccc5)cc4)C3=O)n(C)c2c1
Activity [1]: inactive
inhibition [2]: inactive
inhibition [3]: inactive
Activity [4]: inactive
Activity (3T3-L1 [5]): Non-Toxic
Activity [6]: inactive
inhibition [7]: inactive
inhibition (3T3-L1 [8]): Dose-dependent effect
